This note sets out measurements from patent publication EP0071175A2, “Phenylalkyloxirane-carboxylic acids, process for their preparation, their use and medicines containing them” (Byk Gulden Lomberg Chemische Fabrik GmbH, priority 1981, dated 1983).

Each structure is given as a SMILES string. Where only a bound is given, the exact number is not on record here.

Data set [1] relates to nüchterner, stoffwechselgesunder Ratten. The experiment in a line: Blood glucose determination after single oral application. It is filed as in vivo, Sprague-Dawley-Ratten. To be noted: maximal lowering vs. control group within 6 hours after single oral application of 0,6 mmol substance/kg body weight; fasted male rats. The source says:
(§1) In Tabelle I werden Untersuchungen des Einflusses von Vertretern der erfindungsgemäßen Verbindungen auf die Blutglucosekonzentration nüchterner, stoffwechselgesunder Ratten wiedergegeben. Spalte A gibt jeweils die maximale Senkung der Blutglucosekonzentration nüchterner Ratten (in % bezogen auf die Kontrollgruppe) an, die im Laufe von 6 Stunden nach einmaliger oraler Applikation von 0,6 mmöl Substanz/kg Körpergewicht be-, obachtet wird. In der Spalte B werden Daten zur akuten Toxizität (LD50; Maus p.o.) wiedergegeben.
1. Blutglucosebestimmung nach einmaliger oraler Applikation
Zur Verwendung kommen junge männliche Sprague-Dawley-Ratten (Körpergewicht 150-200 g). Die Haltung der Tiere (6 Tiere pro Dosis) erfolgt in Makrolon-Käfigen mit bis zu 4 Tieren pro Käfig (Raumtemperatur 23 °C, rel. Luftfeuchtigkeit 55 %, fester Tag/Nacht-Rythmus (12/12=h) Standarddiät Altromin®). Den Ratten wird 18 Stunden vor der 1. Blutentnahme das Futter entzogen. Wasseraufnahme erfolgt ad libitum. Blutentnahmen erfolgen unmittelbar vor und 2, 4 und 6 Stunden nach Substanzgabe durch Punktion aus dem retroorbitalen Plexus. Nach Enteiweißung mit Perchlorsäure wird die Blutglucosebestimmung mittels der bei Banauch et.al. [J.Clin.Chem.Clin.Biochem. 13, 101(1975)] beschriebener Glucose-Dehydrogenase-Methode mit Hilfe von kommerziellen Reagentien durchgeführt. Zum Vergleich wird jeweils eine mit reinem Lösungsmittel behandelte Kontrollgruppe mituntersucht (10 Tiere pro Kontrollgruppe).

The next data set is described as follows: in vivo. To be noted: mouse, po, read-out: Akute Toxizität Maus p.o. LD50.
Excerpt: as §1
2. Bestimmung der Toxizität .
Die Toxizitätsuntersuchungen werden an weiblichen NMRI-Mäusen (Körpergewicht 22-26 g) durchgeführt. Die Tiere (5 Tiere pro Dosis) erhalten 18 Stunden vor der Behandlung das Futter (Altromin®) auf 50 g/50 Tiere reduziert und Wasser ad libitum. Verschiedene Dosen der Substanzen werden oral mittels Schlundsonde verabreicht (Volumen 10 ml/kg). Die Beobachtungsdauer beträgt 7 Tage.

In the case of `CCCCNC(=N)NC(=N)N` [compound 1, Buformin, reference compound], the “Senkung der Blut-glucosekonzentration (in %) in vivo” value in data set [1] turned out to be 8%.

With `[H]/N=C(/N)N/C(=N/[H])NCCc1ccccc1` [compound 2, Phenformin, reference compound], the “Senkung der Blut-glucosekonzentration (in %) in vivo” value in data set [1] is listed as 6%.

With `CCOC(=O)C1(CCCC(C)Cc2ccccc2)CO1` (stereo not shown) [compound 3, 2-(4-Methyl-5-phenylpentyl)-oxiran-2-carbonsäureethylester], in data set [1], the “Senkung der Blut-glucosekonzentration (in %) in vivo” value worked out at 45%. Moreover, in the data set “in vivo”, the LD50 (commonly the dose at which mortality reaches 50%) is above 1000 mg/kg.

Regarding `CCOC(=O)C1(CC(CC)CCCc2ccccc2)CO1` (stereo not shown) [compound 4, 2-(2-Ethyl-5-phenylpentyl)-oxiran-2-carbonsäureethylester], the “Senkung der Blut-glucosekonzentration (in %) in vivo” value in data set [1] turned out to be 25%.

As to `CCOC(=O)C1(CCCC(C)Cc2ccc(Cl)cc2)CO1` (stereo not shown) [compound 5, 2-[5-(4-Chlorphenyl)-4-methylpentyl]-oxiran-2-carbonsäure-ethylester], in data set [1], the “Senkung der Blut-glucosekonzentration (in %) in vivo” value worked out at 70%. Moreover, the LD50 in “in vivo” was around 500 mg/kg.

As to `CCOC(=O)C1(CCCC(C)CCCc2ccccc2)CO1` (stereo not shown) [compound 6, 2-(4-Methyl-7-phenylheptyl)-oxiran-2-carbonsäureethylester], the “Senkung der Blut-glucosekonzentration (in %) in vivo” value in data set [1] was found to be 35%. Further, the LD50 in the data set “in vivo” is above 500 mg/kg.

On to `CCOC(=O)C1(CCCCC(C)c2ccccc2)CO1` (stereo not shown) [compound 7, 2-(5-Methyl-5-phenylpentyl)-oxiran-2-carbonsäureethylester], for which the “Senkung der Blut-glucosekonzentration (in %) in vivo” value in data set [1] is on record as 22%.
